Patent US6608069B1, “Phenyl xanthine derivatives” (SmithKline Beecham Corporation, priority 1998, dated 2003)

test system: cytokine-stimulated human umbilical vein endothelial cells; experiment: Cell Adhesion Assay: adherence of fluorescently-labelled leukocytes to endothelial cell monolayers; type: cell-based; conditions: inhibition of cytokine-stimulated adhesion minus basal adhesion; calcein-AM labelled leukocytes on HUVEC monolayers
Experimental: The antiadhesion activity of compounds of the invention was determined using a modification of the previously described method, Jurgensen, C. H. et. al., J. Immunol. 144: 653-661. The adhesiveness of cytokine-stimulated human umbilical vein endothelial cells was assessed by quantitating the adherence of fluorescently-labelled (calcein-AM, Molecular Probes, Eugene, Oreg.) leukocytes to endothelial cell monolayers. Activity was determined by calculating inhibition of cytokine-stimulated adhesion minus the basal adhesion (unstimulated).

Row | Compound | IC50 [nM]
1 | COCCOCCOCCOCCOCCOCCOCCOCCOCCNC(=O)/C=C/c1cccc(-c2nc3c(=O)n(CC4CCCCC4)c(=O)n(CC4CCCCC4)c3[nH]2)c1 [Example 67, (E)-3-(1,3-bis(cyclohexylmethyl)-1,2,3,6-tetrahydro-2,6-dioxo-9H-purin-8-yl)cinnamic Acid Nonaethylene Glycol Methyl Ether Amide] | 2000 ± 820
2 | COCCOCCOCCOCCOCCOCCOCCOCCOCCNC(=O)/C=C/c1ccc(-c2nc3c(=O)n(Cc4ccccc4)c(=O)n(Cc4ccccc4)c3[nH]2)cc1 [Example 70, (E)-4-[1,3-bis(benzyl)-1,2,3,6-tetrahydro-2,6-dioxo-9H-purin-8-y]cinnamic Acid Nonaethylene Glycol Methyl Ether Amide] | > 1000
3 | COCCOCCOCCOCCOCCOCCOCCOCCOCCNC(=O)/C=C/c1ccc(-c2nc3c(=O)n(CC(C)C)c(=O)n(CC(C)C)c3[nH]2)cc1 [Example 72, (E)-4-(1,3-bis(2-methylpropyl)-1,2,3,6-tetrahydro-2,6-dioxo-9H-purin-8-yl)cinnamic Acid Nonaethylene Glycol Methyl Ether Amide] | > 2000
4 | COCCOCCOCCOCCOCCOCCOCCOCCOCCNC(=O)c1ccc(-c2nc3c(=O)n(CC4CCCCC4)c(=O)n(CC4CCCCC4)c3[nH]2)cc1 [Example 75, 4-(1,3-Bis(cyclohexylmethyl)-1,2,3,6-tetrahydro-2,6-dioxo-9H-purin-8-yl)benzoic Acid Nonaethylene Glycol Methyl Ether Amide] | 60 ± 25
5 | COCCOCCOCCOCCOCCOCCOCCOCCOCCN(C)C(=O)c1ccc(-c2nc3c(=O)n(CC4CCCCC4)c(=O)n(CC4CCCCC4)c3[nH]2)cc1 [Example 76, 4-(1,3-Bis(cyclohexylmethyl)-1,2,3,6-tetrahydro-2,6-dioxo-9H-purin-8-yl) benzoic Acid-N-methyl-Nonaethylene Glycol Methyl Ether Amide] | 350 ± 130
6 | COCCOCCOCCOCCOCCOCCOCCOCCOCCOC(=O)/C=C/c1ccc(-c2nc3c(c(=O)n(CC4CCCCC4)c(=O)n3CC3CCCCC3)n2Cc2ccccc2)cc1 [Example 77, (E)-4-(1,3-Bis(cyclohexylmethyl)-2,3,6,7-tetrahydro-2,6-dioxo-7-benzyl-1H-purin-8-yl)cinnamic Acid Nonaethylene Glycol Methyl Ether Ester] | 9.6 ± 5
7 | COCCOCCOCCOCCOCCOCCOCCOCCOCCOC(=O)/C=C/c1ccc(-c2nc3c(c(=O)n(CC4CCCCC4)c(=O)n3CC3CCCCC3)n2CC(=O)c2ccccc2)cc1 [Example 78, (E)-4-(1,3-Bis(cyclohexylmethyl)-2,3,6,7-tetrahydro-2,6-dioxo-7-(2-oxo-2-phenylethyl)-1H-purin-8-yl)cinnamic Acid Nonaethylene Glycol Methyl Ether Ester] | 0.1 ± 0.09
8 | COCCOCCOCCOCCOCCOCCOCCOCCOCCOC(=O)/C=C/c1ccc(-c2nc3c(c(=O)n(CC4CCCCC4)c(=O)n3CC3CCCCC3)n2CN2CCOCC2)cc1 [Example 82, (E)-4-(1,3-Bis(cyclohexylmethyl)-2,3,6,7-tetrahydro-2,6-dioxo-7-(4-morpholinylmethyl)-1H-purin-8-yl)cinnamic Acid Nonaethylene Glycol Methyl Ether Ester] | 19 ± 16
9 | COCCOCCOCCOCCOCCOCCOCCOCCOCCOC(=O)c1ccc(-c2nc3c(c(=O)n(CC4CCCCC4)c(=O)n3CC3CCCCC3)n2Cc2ccccc2)cc1 [Example 88, 4-(1,3-Bis(cyclohexylmethyl)-2,3,6,7-tetrahydro-2,6-dioxo-7-benzyl-1H-purin-8-yl)benzoic Acid Nonaethylene Glycol Methyl Ether Ester] | 49 ± 19
10 | COCCOCCOCCOCCOCCOCCOCCOCCOCCOC(=O)c1ccc(-c2nc3c(c(=O)n(CC4CCCCC4)c(=O)n3CC3CCCCC3)n2C)cc1 [Example 89, 4-(1,3-Bis(cyclohexylmethyl)-2,3,6,7-tetrahydro-2,6-dioxo-7-methyl-1H-purin-8-yl)benzoic Acid Nonaethylene Glycol Methyl Ether Ester] | 38 ± 18
11 | COCCOCCOCCOCCOCCOCCOCCOCCOCCOC(=O)CCc1ccc(-c2nc3c(c(=O)n(CC4CCCCC4)c(=O)n3CC3CCCCC3)n2C)cc1 [Example 90, 4-[(1,3-Bis(cyclohexylmethyl)-2,3,6,7-tetrahydro-2,6-dioxo-7-methyl-1H-purin-8-yl)phenyl] propionic Acid Nonaethylene Glycol Methyl Ether Ester] | 240 ± 140
12 | COCCOCCOCCOCCOCCOCCOCCOCCOCCNC(=O)/C=C/c1ccc(-c2nc3c(c(=O)n(CC4CCCCC4)c(=O)n3CC3CCCCC3)n2C)cc1 [Example 91, (E)-4-(1,3-Bis(cyclohexylmethyl)-2,3,6,7-tetrahydro-2,6-dioxo-7-methyl-1H-purin-8-yl)cinnamic Acid Nonaethylene Glycol Methyl Ether Amide] | 60 ± 29
13 | COCCOCCOCCOCCOCCOCCOCCOCCOCCNC(=O)/C=C/c1ccc(-c2nc3c(c(=O)n(CC4CCCCC4)c(=O)n3CC3CCCCC3)n2Cc2ccccc2)cc1 [Example 92, (E)-4-(1,3-Bis(cyclohexylmethyl)-2,3,6,7-tetrahydro-2,6-dioxo-7-benzyl-1H-purin-8-yl)cinnamic Acid Nonaethylene Glycol Methyl Ether Amide] | 23 ± 12
14 | COCCOCCOCCOCCOCCOCCOCCOCCOCCNC(=O)c1ccc(-c2nc3c(c(=O)n(CC4CCCCC4)c(=O)n3CC3CCCCC3)n2Cc2ccccc2)cc1 [Example 93, 4-(1,3-Bis(cyclohexylmethyl)-2,3,6,7-tetrahydro-2,6-dioxo-7-benzyl-1H-purin-8-yl)benzoic Add Nonaethylene Glycol Methyl Ether Amide] | 69 ± 97
15 | COCCOCCOCCOCCOCCOCCOCCOCCOCCNC(=O)c1ccc(-c2nc3c(c(=O)n(CC4CCCCC4)c(=O)n3CC3CCCCC3)n2C)cc1 [Example 94, 4-(1,3-Bis(cyclohexylmethyl)-2,3,6,7-tetrahydro-2,6-dioxo-7-methyl-1H-purin-8-yl)benzoic Acid Nonaethylene Glycol Methyl Ether Amide] | 220 ± 87
16 | COCCOCCOCCN(CCOCCOCCOC)C(=O)/C=C/c1ccc(-c2nc3c(=O)n(CC4CCCCC4)c(=O)n(CC4CCCCC4)c3[nH]2)cc1 [Example 95, (E)-4-(1,3-bis(cyclohexylmethyl)-1,2,3,6-tetrahydro-2,6-dioxo-9H-purin-8-yl)cinnamic Acid N,N-Bis Triethylene Glycol Methyl Ether Amide] | 1700 ± 690

Other lines, results leading:

Row | IC50 [nM] | Compound
17 | 230 ± 100 | COCCOCCOCCOCCOCCOCCOCCOCCOCCOC(=O)/C=C/c1ccc(-c2nc3c(=O)n(C4CCCCC4)c(=O)n(C4CCCCC4)c3[nH]2)cc1 [Example 66, (E)-4-[1,3-Bis(cyclohexyl)-1,2,3,6-tetrahydro-2,6-dioxo-9H-purin-8-yl]cinnamic Acid Nonaethylene Glycol Methyl Ether Ester]
18 | 62 ± 27 | COCCOCCOCCOCCOCCOCCOCCOCCOCCNC(=O)/C=C/c1ccc(-c2nc3c(=O)n(CC4CCCCC4)c(=O)n(CC4CCCCC4)c3[nH]2)cc1 [Example 69, (E)-4-(1,3-Bis(cyclohexylmethyl)-1,2,3,6-tetrahydro-2,6-dioxo-9H-purin-8-yl)cinnamic Acid Nonaethylene Glycol Methyl Ether Amide]
19 | 240 ± 200 | COCCOCCOCCOCCOCCOCCOCCOCCOCCNC(=O)/C=C/c1ccc(-c2nc3c(=O)n(CC4CCCC4)c(=O)n(CC4CCCC4)c3[nH]2)cc1 [Example 71, (E)-4-(1,3-bis(cyclopentylmethyl)-1,2,3,6-tetrahydro-2,6-dioxo-9H-purin-8-yl)cinnamic Acid Nonaethylene Glycol Methyl Ether Amide]
20 | 10 ± 4 | C#CCn1c(-c2ccc(/C=C/C(=O)OCCOCCOCCOCCOCCOCCOCCOCCOCCOC)cc2)nc2c1c(=O)n(CC1CCCCC1)c(=O)n2CC1CCCCC1 [Example 80, (E)-4-(1,3-Bis(cyclohexylmethyl)-2,3,6,7-tetrahydro-2,6-dioxo-7-(2-propynyl)-1H-purin-8-yl)cinnamic Acid Nonaethylene Glycol Methyl Ether Ester]
21 | 16 ± 18 | COCCOCCOCCOCCOCCOCCOCCOCCOCCOC(=O)/C=C/c1ccc(-c2nc3c(c(=O)n(CC4CCCCC4)c(=O)n3CC3CCCCC3)n2CC(C)=O)cc1 [Example 81, (E)-4-(1,3-Bis(cyclohexylmethyl)-2,3,6,7-tetrahydro-2,6-dioxo7-(2-oxo-2-methylethyl)-1H-purin-8-yl)cinnamic Acid Nonaethylene Glycol Methyl Ether Ester]
22 | 28 ± 12 | CCn1c(-c2ccc(/C=C/C(=O)OCCOCCOCCOCCOCCOCCOCCOCCOCCOC)cc2)nc2c1c(=O)n(CC1CCCCC1)c(=O)n2CC1CCCCC1 [Example 83, (E)-4-(1,3-Bis(cyclohexylmethyl)-2,3,6,7-tetrahydro-2,6-dioxo-7-ethyl-1H-purin-8-yl)cinnamic Acid Nonaethylene Glycol Methyl Ether Ester]
23 | 7 ± 4 | CCOC(=O)Cn1c(-c2ccc(/C=C/C(=O)OCCOCCOCCOCCOCCOCCOCCOCCOCCOC)cc2)nc2c1c(=O)n(CC1CCCCC1)c(=O)n2CC1CCCCC1 [Example 84, (E)-4-(1,3-Bis(cyclohexylmethyl)-2,3,6,7-tetrahydro-2,6-dioxo-7-(2-ethoxy-2-oxoethyl)-1H-purin-8-yl)cinnamic Acid Nonaethylene Glycol Methyl Ether Ester]
24 | 8 ± 3 | C=C(C)Cn1c(-c2ccc(/C=C/C(=O)OCCOCCOCCOCCOCCOCCOCCOCCOCCOC)cc2)nc2c1c(=O)n(CC1CCCCC1)c(=O)n2CC1CCCCC1 [Example 86, (E)-4-(1,3-Bis(cyclohexylmethyl)-2,3,6,7-tetrahydro-2,6-dioxo-7-(2-methyl-2-propenyl)-1H-purin-8-yl)cinnamic Acid Nonaethylene Glycol Methyl Ether Ester]
25 | 37 ± 13 | COCCOCCOCCOCCOCCOCCOCCOCCOCCOC(=O)/C=C/c1ccc(-c2nc3c(c(=O)n(CC4CCCCC4)c(=O)n3CC3CCCCC3)n2CC#N)cc1 [Example 87, (E)-4-(1,3-Bis(cyclohexylmethyl)-2,3,6,7-tetrahydro-2,6-dioxo-7-(cyanomethyl)-1H-purin-8-yl)cinnamic Acid Nonaethylene Glycol Methyl Ether Ester]
